Laboratory results published in patent US20130150375A1, “GEPIRONE-ER TREATMENT OF MAJOR DEPRESSION IN PATIENTS TAKING NON-STEROIDAL ANTI-INFLAMMATORY DRUGS (NSAIDs)” (Fabre-Kramer Pharmaceuticals.Inc., priority 2011, published 2013).

Columns and labels:
[1] = test system: 5-HT receptors; conditions: cited from earlier work
[2] = test system: post-synaptic receptors in the hippocampus; conditions: cited from earlier work
[3] = test system: depressed patients taking an NSAID; experiment: Individual patient cases from the study (Examples 1 and 2), HAMD-17; assay type: in vivo, human; conditions: Example 2: person taking ibuprofen
Excerpt: The following Examples represent a sampling of the subjects studied:
A person came to a psychiatric clinic complaining of depression. Their symptoms included: depressed mood, insomnia, lack of energy, low sex drive, and mild suicidal thoughts. They also were being treated for cardiac complains and was taking a daily NSAID (aspirin) to improve blood flow. They refused to discontinue their aspirin because their cardiologist had prohibited them from doing so. Their initial HAMD-17 was 26. After 8 weeks of treatment with Gepirone-ER all of their depressive symptoms had been eliminated.
A person came into the same psychiatric clinic complaining of depression. Their symptoms included depressed mood, lethargy, guilt, and trouble waking up early in the morning. They were also being treated by their neurologist for chronic headaches with ibuprofen. They refused to discontinue the ibuprofen because the headaches interfered with their ability to work. Their initial HAMD-17 was 16. […] A further trial of a second SSRI (citalopram) also failed.

[4] = test system: depressed subjects; experiment: Antidepressant efficacy with and without concomitant NSAIDs in depressed subjects (HAMD-17); assay type: in vivo, human; conditions: for HAMD-17 CFB (change from baseline) / Remitters (HAMD-17 score of 7 or less after treatment) / Responders (50% improvement in HAMD-17): end of treatment
Excerpt: To control for a placebo effect, 1045 depressed patients taking placebo were studied. Finally, 1041 depressed subjects taking gepirone-ER were studied. In contrast to the STAR-D study, three measures of efficacy were employed: remitters (HAMD-17 score 7 or less at end of treatment), responders (HAMD-17 50% reduction from baseline score at end of treatment) and HAMD-17 total score (change from baseline at end of treatment). Further, to test a possible dose of NSAID effect, two dose levels were tested: subjects taking any NSAID any time and subjects taking daily aspirin and other NSAIDs.

[5] = in vivo; cited from earlier work
[6] = test system: presynaptic α-2-adrenoceptor; conditions: cited from earlier work
[7] = High NSAID (daily aspirin and other NSAIDs)
[8] = High NSAID (daily aspirin and other NSAIDs), listed as fluoxetine
[9] = no NSAID (None), comparison to Any NSAID
[10] = no NSAID (None), comparison to High NSAID
[11] = subjects taking any NSAID any time

## CC1(C)CC(=O)N(CCCCN2CCN(c3ncccn3)CC2)C(=O)C1O (stereo not drawn) [3′-OH gepirone]
[1]
  Affinity for 5-HT receptors: significant affinity
[2]
  Agonism at post-synaptic receptors in the hippocampus: full agonism

## CNCCC(Oc1ccc(C(F)(F)F)cc1)c1ccccc1 (stereo not drawn) [Fluoxetine]
[3]
  Clinical outcome: no improvement
[3]; initial HAMD-17 16, after 8 weeks of treatment
  HAMD-17 score after treatment: 20
[4]; [7]
  HAMD-17 CFB (change from baseline): −9.03
  Remitters (HAMD-17 score of 7 or less after treatment): 27%
  Responders (50% improvement in HAMD-17): 45%
[4]; [8]
  HAMD-17 CFB (change from baseline): −9.04
  Responders (50% improvement in HAMD-17): 45%
[4]; either NSAID dose level, three efficacy measures
  Effect of NSAIDs on antidepressant efficacy: NSAIDs interfere with the antidepressant activity
[4]; [9]
  HAMD-17 CFB (change from baseline): −10.5
  Remitters (HAMD-17 score of 7 or less after treatment): 28.3%
  Responders (50% improvement in HAMD-17): 51%
[4]; [10]
  Remitters (HAMD-17 score of 7 or less after treatment): 32%
  Responders (50% improvement in HAMD-17): 55%
[4]; no NSAID (None), comparison to High NSAID, listed as fluoxetine
  Responders (50% improvement in HAMD-17): 55%
[4]; [11]
  HAMD-17 CFB (change from baseline): −9.57
  Remitters (HAMD-17 score of 7 or less after treatment): 29%
  Responders (50% improvement in HAMD-17): 48%

## c1cnc(N2CCNCC2)nc1 [1-PP, 1-(2-pyrimidinyl)piperazine]
[5]
  Antidepressant-like characteristics in pre-clinical tests: did not exhibit antidepressant-like characteristics
[6]
  Action at presynaptic α-2-adrenoceptor: antagonist
